ChEMBL document CHEMBL4402529, “Immunoproteasome-selective inhibitors: An overview of recent developments as potential drugs for hematologic malignancies and autoimmune diseases” (Eur J Med Chem, 2019)
Blank lines part the entries; values can stand above or below the molecule they belong to.

Legend:
[1] = target: T1, Proteasome subunit beta type-8 (Homo sapiens, UniProt P28062); test: Inhibition of human 20S proteasome beta 5i
T1 sequence (P28062 whole entry): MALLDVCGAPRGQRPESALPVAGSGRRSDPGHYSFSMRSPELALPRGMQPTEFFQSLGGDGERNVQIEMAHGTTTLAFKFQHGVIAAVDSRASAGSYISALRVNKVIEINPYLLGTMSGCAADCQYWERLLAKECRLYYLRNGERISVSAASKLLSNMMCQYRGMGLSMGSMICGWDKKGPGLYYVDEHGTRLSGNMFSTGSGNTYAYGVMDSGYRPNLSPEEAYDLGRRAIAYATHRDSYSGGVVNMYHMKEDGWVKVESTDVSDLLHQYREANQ

[2] = organism: Homo sapiens; test: Selectivity index, ratio of IC50 for human 20S proteasome beta 5c to IC50 for human 20S proteasome beta 5i
[3] = organism: Homo sapiens; test: Selectivity index, ratio of IC50 for 20S proteasome beta 5c (unknown origin) to IC50 for 20S proteasome beta 5i (unknown origin)
[4] = target: T1, Proteasome subunit beta type-8; test: Inhibition of 20S proteasome beta 5i (unknown origin) after 1 hr by cell based assay
[5] = target: T2, Proteasome Macropain subunit MB1 (Homo sapiens, UniProt P28074); test: Inhibition of 20S proteasome beta 5c (unknown origin) after 1 hr by cell based assay
T2 sequence (P28074 whole entry): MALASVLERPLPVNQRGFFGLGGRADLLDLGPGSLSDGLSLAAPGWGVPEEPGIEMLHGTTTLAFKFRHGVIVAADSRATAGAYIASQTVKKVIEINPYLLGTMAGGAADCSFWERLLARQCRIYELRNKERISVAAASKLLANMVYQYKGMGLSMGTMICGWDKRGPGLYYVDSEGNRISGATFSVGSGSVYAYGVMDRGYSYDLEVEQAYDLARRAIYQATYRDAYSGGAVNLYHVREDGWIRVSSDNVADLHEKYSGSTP

[6] = target: T2, Proteasome Macropain subunit MB1; test: Inhibition of human 20S proteasome beta 5c
[7] = target: T3, Proteasome subunit beta type-9 (Homo sapiens, UniProt P28065); test: Inhibition of 20S proteasome beta 1i (unknown origin) after 1 hr by fluorescence based assay
T3 sequence (P28065 whole entry): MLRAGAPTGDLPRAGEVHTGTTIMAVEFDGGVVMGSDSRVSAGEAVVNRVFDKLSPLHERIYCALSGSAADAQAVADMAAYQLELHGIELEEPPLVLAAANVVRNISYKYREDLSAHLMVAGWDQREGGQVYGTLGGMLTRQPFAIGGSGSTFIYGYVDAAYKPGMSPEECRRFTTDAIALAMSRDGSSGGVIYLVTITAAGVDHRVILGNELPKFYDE

[8] = target: T4, Proteasome subunit beta type-10 (Homo sapiens, UniProt P40306); test: Inhibition of 20S proteasome beta 2i (unknown origin) after 1 hr by fluorescence based assay
T4 sequence (P40306 whole entry): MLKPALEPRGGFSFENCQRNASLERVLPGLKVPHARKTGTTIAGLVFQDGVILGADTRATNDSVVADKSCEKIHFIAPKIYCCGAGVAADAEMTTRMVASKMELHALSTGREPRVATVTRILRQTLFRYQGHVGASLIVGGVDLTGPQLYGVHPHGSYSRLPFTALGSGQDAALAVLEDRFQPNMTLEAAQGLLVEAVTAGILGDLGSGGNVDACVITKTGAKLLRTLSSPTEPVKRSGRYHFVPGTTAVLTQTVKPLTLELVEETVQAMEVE

[9] = target: T2, Proteasome Macropain subunit MB1; test: Inhibition of 20S proteasome beta 5c (unknown origin) after 1 hr by fluorescence based assay
[10] = target: T1, Proteasome subunit beta type-8; test: Inhibition of 20S proteasome beta 5i (unknown origin) after 1 hr by fluorescence based assay
[11] = organism: Homo sapiens; test: Selectivity index, ratio of IC50 for 20S proteasome beta 1c (unknown origin) to IC50 for 20S proteasome beta 1i (unknown origin)
[12] = organism: Homo sapiens; test: Selectivity index, ratio of IC50 for 20S proteasome beta 2c (unknown origin) to IC50 for 20S proteasome beta 2i (unknown origin)
[13] = target: T3, Proteasome subunit beta type-9; test: Inhibition of 20S proteasome beta 1i (unknown origin)
[14] = Inhibition of 20S proteasome beta 2c (unknown origin)

Structure (SMILES): COc1ccc([C@@H](O)[C@H](NC(=O)[C@H](C)NC(=O)CN2CCOCC2)C(=O)N[C@@H](CC2=CCCC2)C(=O)[C@@]2(C)CO2)cc1 [ZETOMIPZOMIB]
IC50 [9]: 688 nM
IC50 [10]: 39 nM
Ratio IC50 [11]: 0.97
Ratio IC50 [12]: > 80.9
Ratio IC50 [3]: 17.6

Structure (SMILES): Cc1ccc(S(=O)(=O)N[C@H](CC(=O)N[C@@H](C)C(=O)NCc2cccc3ccccc23)CC(=O)NC(C)(C)C)cc1
Ratio IC50 [3]: 5600
IC50 [4]: 14 nM
IC50 [5]: 78.2 µM

Structure (SMILES): Cc1ccc(S(=O)(=O)N[C@@H](CC(=O)NC(C)(C)C)C(=O)NCCNC(=O)c2cc(-c3ccccc3F)ccc2F)cc1
Ratio IC50 [3]: 28

Structure (SMILES): CC(C)(C)NC(=O)C[C@H](NS(=O)(=O)C1CC1)C(=O)NCCNC(=O)c1cc(-c2ccccc2F)ccc1F
Ratio IC50 [3]: 64

Structure (SMILES): CC(C)C[C@H](NC(=O)CN1CCCCCC1)C(=O)N[C@@H](Cc1ccccc1)C(=O)N[C@@H](Cc1ccccc1)C(=O)[C@@]1(C)CO1
Ratio IC50 [11]: > 602
Ratio IC50 [3]: 0.8
IC50 [13]: 425 nM
IC50 [14]: 81 nM

Structure (SMILES): Cc1ccc(S(=O)(=O)N[C@@H](CC(=O)NC(C)(C)C)C(=O)N[C@@H](C)CC(=O)NCc2cccc3ccccc23)cc1
Ratio IC50 [3]: 13600
IC50 [4]: 5.5 nM
IC50 [5]: 74.9 µM

Structure (SMILES): COc1ccc(C[C@H](NC(=O)[C@@H](C)NC(=O)[C@H]2CC[C@H](O)CC2)C(=O)N[C@@H](CC2=CCCC2)C(=O)[C@@]2(C)CO2)cc1
Ratio IC50 [11]: > 14
Ratio IC50 [3]: 79

The next lines start with the values.

IC50 [1]: 120 nM
Ratio IC50 [2]: > 80
Structure (SMILES): Cc1c(Cc2nsc(=O)o2)c(=O)oc2cc3occ(-c4ccccc4)c3cc12

Ratio IC50 [3]: 1330
IC50 [4]: 57 nM
IC50 [5]: 76 µM
Structure (SMILES): C[C@@H](CC(=O)NCc1cccc2ccccc12)NC(=O)[C@H](CC(=O)NC(C)(C)C)NC(=O)CCc1ccccc1

IC50 [1]: 13 nM
IC50 [6]: 1070 nM
Ratio IC50 [2]: 83
Structure (SMILES): Cc1c(C2CCCC2)c(=O)oc2cc3occ(-c4ccccc4)c3cc12

IC50 [1]: 1600 nM
IC50 [6]: 172000 nM
Ratio IC50 [2]: 108
Structure (SMILES): Cc1c(CCC(=O)O)c(=O)oc2cc3occ(-c4ccccc4)c3cc12

IC50 [7]: 1 to 3 nM
IC50 [8]: 10 to 30 nM
IC50 [9]: 3 to 20 nM
IC50 [10]: 3 to 20 nM
Structure (SMILES): CC(C)C[C@H](NC(=O)[C@@H](NC(=O)c1cccc(-c2ccccc2)n1)[C@@H](C)O)B(O)O [DELANZOMIB]

IC50 [1]: 9 nM
IC50 [6]: 220 nM
Ratio IC50 [2]: 24
Structure (SMILES): Cc1c(CCC(=O)ON2C(=O)CCC2=O)c(=O)oc2cc3occ(-c4ccccc4)c3cc12
